These compounds were tested against Active Human ERK2 (hERK2) (Homo sapiens (Human), UniProt P28482) (assay: Active Human ERK2 (hERK2) Activity Assay (IMAP-FP)). Details: phosphorylated active hERK2, 30 μM ATP; average; read-out: ERK 2 Human average IC50.
Type: biochemical
Outline: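 Reaction contains 0.5 nM activated hERK2, 900 nM unlabeled plus 80 nM labeled peptide and 30 μM ATP, run 60 min. Quenched with IMAP binding beads in buffer with 24 mM NaCl; fluorescence polarization read after 60 min binding equilibration.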

Chain of Active Human ERK2 (hERK2) (P28482 whole entry): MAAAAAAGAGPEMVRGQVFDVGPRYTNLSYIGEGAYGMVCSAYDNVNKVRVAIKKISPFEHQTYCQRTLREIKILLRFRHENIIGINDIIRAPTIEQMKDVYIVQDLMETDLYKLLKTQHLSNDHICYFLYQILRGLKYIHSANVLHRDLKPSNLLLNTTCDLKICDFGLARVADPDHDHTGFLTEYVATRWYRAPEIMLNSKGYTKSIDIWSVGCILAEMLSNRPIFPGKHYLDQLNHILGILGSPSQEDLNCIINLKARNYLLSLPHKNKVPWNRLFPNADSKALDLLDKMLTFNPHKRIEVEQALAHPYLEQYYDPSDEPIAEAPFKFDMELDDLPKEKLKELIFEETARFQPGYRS

Row | SMILES | IC50
1 | Cc1cc(-c2n[nH]c3cc(NC(=O)N[C@@H]4CNC[C@@H]4c4ccccc4)ncc23)ccn1 [Example 180] | 4.58 nM
2 | Cc1cc(-c2n[nH]c3cc(NC(=O)NCc4nccc5ccccc45)ncc23)ccn1 [Example 390] | 2.76 nM
3 | CN1CC[C@H](CNC(=O)Nc2cc3[nH]nc(-c4ccc(F)cc4)c3cn2)C1 [Example 322] | 1.17 nM
4 | Cc1cc(-c2n[nH]c3cc(NC(=O)NCCC4=CCCC4)ncc23)ccn1 [Example 212] | 1.76 nM
5 | Cc1cc(-c2n[nH]c3cc(NC(=O)NCc4ccns4)ncc23)ccn1 [Example 429] | 1.12 nM
6 | Cc1cc(-c2n[nH]c3c(Br)c(NC(=O)N[C@H](C)c4ccc(Cl)cc4)ncc23)ccn1 [Example 86, 1-[7-bromo-3-(2-methylpyridin-4-yl)-1H-pyrazolo[4,3-c]pyridin-6-yl]-3-[(1R)-1-(4-chlorophenyl)ethyl]urea] | 455 nM
7 | Cc1cc(-c2n[nH]c3cc(NC(=O)N[C@@H]4CN(C)C[C@H]4F)ncc23)ccn1 [Example 329, 1-((3R,4R)-4-fluoro-1-methylpyrrolidin-3-yl)-3-(3-(2-methylpyridin-4-yl)-1H-pyrazolo[4,3-c]pyridin-6-yl)urea] | 56.5 nM
8 | COCCN(Cc1cccnc1)C(=O)Nc1cc2[nH]nc(-c3ccnc(C)c3)c2cn1 [Example 50, 1-(2-methoxyethyl)-3-[3-(2-methylpyridin-4-yl)-1H-pyrazolo[4,3-c]pyridin-6-yl]-1-(pyridin-3-ylmethyl)urea] | 899 nM
9 | Cc1cc(-c2n[nH]c3cc(NC(=O)N[C@@H](CN)c4ccccc4)ncc23)ccn1 [Example 172] | 243 nM
10 | Cc1cc(-c2n[nH]c3cc(NC(=O)N[C@@H](C)c4ccc(F)c(F)c4)ncc23)ccn1 [Example 411] | 34.1 nM
11 | C[C@@H](NC(=O)Nc1cc2[nH]nc(-c3ccc(C#N)cc3)c2cn1)c1ccc(F)cc1 [Example 83, 1-[3-(4-cyanophenyl)-1H-pyrazolo[4,3-c]pyridin-6-yl]-3-[(1R)-1-(4-fluorophenyl)ethyl]urea] | 3.28 nM
12 | C[C@@H](NC(=O)Nc1cc2[nH]nc(C(=O)NCC3CCN(C4CC4)C3)c2cn1)c1ccccc1 (some centres unmarked) [Example 129] | 13.6 nM
13 | Cc1cc(-c2n[nH]c3cc(NC(=O)NC(C)(C)c4ccccn4)ncc23)ccn1 [Example 357] | 106 nM
14 | C[C@@H](NC(=O)Nc1cc2[nH]nc(-c3cnc(N(C)S(C)(=O)=O)nc3)c2cn1)c1ccccc1 [Example 292] | 3.6 nM
15 | C[C@@H](NC(=O)Nc1cc2[nH]nc(-c3ccc(C#N)nc3)c2cn1)c1ccc(F)cc1 [Example 254] | 4.59 nM
16 | COC[C@@H](NC(=O)Nc1cc2[nH]nc(-c3ccc(-n4ccnn4)cc3)c2cn1)c1ccc(F)cc1 [Example 307] | 1.75 nM
17 | Cc1cc(-c2n[nH]c3cc(NC(=O)NCC4(O)CCN(C)CC4)ncc23)ccn1 [Example 388] | 6.66 nM
18 | Cc1cc(-c2n[nH]c3cc(NC(=O)NC4CCc5cc(Cl)ccc54)ncc23)ccn1 (centres unmarked) [Example 283] | 86 nM
19 | CCc1c(NC(=O)N[C@H](C)c2ccccc2)ncc2c(-c3ccnc(C)c3)n[nH]c12 [Example 175] | 6.68 nM
20 | C[C@@H](NC(=O)Nc1cc2[nH]nc(C(=O)NCC3(O)CCC3)c2cn1)c1ccccc1 [Example 136] | 11.9 nM

Row | SMILES | IC50
21 | Cc1ccc2nc(CNC(=O)Nc3cc4[nH]nc(-c5ccnc(C)c5)c4cn3)cn2c1 [Example 391] | 22.2 nM
22 | Cc1cc(-c2n[nH]c3cc(NC(=O)NC(C)c4cccnc4)ncc23)ccn1 (centres unmarked) [Example 49, 1-[3-(2-methylpyridin-4-yl)-1H-pyrazolo[4,3-c]pyridin-6-yl]-3-(1-pyridin-3-ylethyl)urea] | 1.04 nM
23 | C[C@@H](NC(=O)Nc1cc2[nH]nc(C(=O)NCC3CCOC3)c2cn1)c1ccccc1 (some centres unmarked) [Example 121] | 3.83 nM
24 | Cc1cc(-c2n[nH]c3cc(NC(=O)N[C@@H]4CCCc5ccncc54)ncc23)ccn1 [Example 263] | 1.8 nM
25 | CCO[C@H]1CN(C)C[C@@H]1NC(=O)Nc1cc2[nH]nc(-c3ccc(F)cc3)c2cn1 [Example 319] | 0.521 nM
26 | C[C@@H](NC(=O)Nc1cc2[nH]nc(C(=O)N[C@@H]3CCN(O)C3=O)c2cn1)c1ccccc1 [Example 134] | 103 nM
27 | Cc1cc(-c2n[nH]c3cc(NC(=O)NCC4CNC(c5ccccc5)C4)ncc23)ccn1 (centres unmarked) [Example 409] | 5.69 nM
28 | Cc1cc(-c2n[nH]c3cc(NC(=O)NC(CF)c4ccccc4)ncc23)ccn1 (centres unmarked) [Example 354] | 0.474 nM
29 | Cc1cc(-c2n[nH]c3cc(NC(=O)NCCC4COc5ccccc5O4)ncc23)ccn1 (centres unmarked) [Example 373] | 1.07 nM
30 | CC(CN(C)C)NC(=O)Nc1cc2[nH]nc(-c3ccc(F)cc3)c2cn1 (centres unmarked) [Example 228] | 70.3 nM
31 | Cc1cc(-c2n[nH]c3cc(NC(=O)NCc4ccc5[nH]cnc5c4)ncc23)ccn1 [Example 368] | 2.79 nM
32 | C[C@@H](NC(=O)Nc1cc2[nH]nc(-c3cnc(O)nc3)c2cn1)c1ccccc1 [Example 290] | 0.366 nM
33 | C[C@@H](NC(=O)Nc1cc2[nH]nc(-c3ccc4nnn(C)c4c3)c2cn1)c1ccc(F)cc1 [Example 260] | 0.309 nM
34 | CN1CC[C@@H](NC(=O)Nc2cc3[nH]nc(-c4ccc(F)cc4)c3cn2)C1 [Example 316] | 1.84 nM
35 | Cc1cc(-c2n[nH]c3cc(NC(=O)NCc4cccc(-c5ncc[nH]5)c4)ncc23)ccn1 [Example 372] | 1.33 nM
36 | Cc1cc(-c2n[nH]c3cc(NC(=O)N[C@H]4CCOc5cc(F)ccc54)ncc23)ccn1 [Example 276, 1-[(4S)-7-fluoro-3,4-dihydro-2H-chromen-4-yl]-3-[3-(2-methylpyridin-4-yl)-1H-pyrazolo[4,3-c]pyridin-6-yl]urea] | 14.7 nM
37 | Cc1cc(-c2n[nH]c3cc(NC(=O)NC(C)(C)CO)ncc23)ccn1 [Example 203] | 104 nM
38 | C[C@@H](NC(=O)Nc1cc2[nH]nc(-c3ccc(N4CCCCC4)nc3)c2cn1)c1ccc(F)cc1 [Example 244] | 9.85 nM
39 | C[C@@H](NC(=O)Nc1cc2[nH]nc(C3CCC3)c2cn1)c1ccccn1 [Example 149] | 72.1 nM

Continued, values first:

Row | IC50 | SMILES
40 | 32.4 nM | Cc1cc(-c2n[nH]c3cc(NC(=O)N[C@H](C)c4ccccc4)ncc23)no1 [Example 682]
41 | 3.46 nM | Cc1cc(-c2n[nH]c3cc(NC(=O)N[C@H](C)C4CCC4)ncc23)ccn1 [Example 595]
42 | 232 nM | Cc1cc(-c2n[nH]c3cc(NC(=O)NC(C)c4nnco4)ncc23)ccn1 (centres unmarked) [Example 556]
43 | 0.929 nM | COc1cccc(F)c1CN1CCC[C@@H](NC(=O)Nc2cc3[nH]nc(-c4ccc5nn(C)cc5c4)c3cn2)C1 [Example 662]
44 | 0.962 nM | Cc1cc(-c2n[nH]c3cc(NC(=O)NCc4c(F)cc(F)cc4F)ncc23)ccn1 [Example 519]
45 | 89.2 nM | O=C(NCc1ccc(F)cc1)Nc1cc2[nH]nc(-c3ccc(OC(F)(F)F)cc3)c2cn1 [Example 675]
46 | 1.26 nM | COC(C)CNC(=O)Nc1cc2[nH]nc(-c3ccnc(C)c3)c2cn1 (centres unmarked) [Example 585]
47 | 2.45 nM | Cc1cc(-c2n[nH]c3cc(NC(=O)NCc4ccc(Cl)cc4C)ncc23)ccn1 [Example 515]
48 | 4.67 nM | Cc1cc(-c2n[nH]c3cc(NC(=O)NC4CCCC(Oc5cccc(F)c5)C4)ncc23)ccn1 (centres unmarked) [Example 657]
49 | 0.545 nM | Cc1cc(-c2n[nH]c3cc(NC(=O)N[C@@H](c4ccccc4)C4(O)CCCC4)ncc23)ccn1 [Example 531]
50 | 25.3 nM | C[C@@H](NC(=O)Nc1cc2[nH]nc(CNCC(F)F)c2cn1)c1ccccc1 [Example 562]
51 | 1.55 nM | C[C@@H](NC(=O)Nc1cc2[nH]nc(-c3cccc(C#N)c3)c2cn1)c1ccccc1 [Example 672]
52 | 12.6 nM | COC[C@H](NC(=O)Nc1cc2[nH]nc(-c3ccnc(C)c3)c2cn1)c1ccccc1 [Example 587]
53 | 9.13 nM | C[C@@H](NC(=O)Nc1cc2[nH]nc(C3=CNCN=C3)c2cn1)c1ccc(F)cc1 [Example 663]
54 | 2.66 nM | C[C@@H](NC(=O)Nc1cc2[nH]nc(C3CC3C(=O)O)c2cn1)c1ccccc1 (some centres unmarked) [Example 660]
55 | 0.26 nM | Cc1cc(-c2n[nH]c3cc(NC(=O)N[C@@H](c4ccccc4)[C@H]4CCCO4)ncc23)ccn1 [Example 553]

Row | IC50 | SMILES
56 | 3.42 nM | Cc1cc(-c2n[nH]c3cc(NC(=O)N[C@H](C)Cc4ccccc4)ncc23)ccn1 [Example 606]
57 | 11.9 nM | COCCOC[C@@H](NC(=O)Nc1cc2[nH]nc(-c3cc(C)on3)c2cn1)c1ccccc1 [Example 700]
58 | 946 nM | C[C@@H](NC(=O)Nc1ncc2c(C#N)n[nH]c2c1F)c1ccccc1 [Example 540]
59 | 0.257 nM | CSC[C@@H](NC(=O)Nc1cc2[nH]nc(-c3ccnc(C)c3)c2cn1)c1ccccc1 [Example 570]
60 | 0.469 nM | Cc1cc(-c2n[nH]c3cc(NC(=O)NCc4c(F)cccc4Cl)ncc23)ccn1 [Example 440]
61 | 1.22 nM | Cc1cc(-c2n[nH]c3cc(NC(=O)NCc4ncccc4C)ncc23)ccn1 [Example 480]
62 | 4.12 nM | Cc1cc(-c2n[nH]c3cc(NC(=O)NCc4cc(C)on4)ncc23)ccn1 [Example 470]
63 | 10.2 nM | CCn1cc(CNC(=O)Nc2cc3[nH]nc(-c4ccnc(C)c4)c3cn2)cn1 [Example 471]
64 | 0.313 nM | Cc1cc(-c2n[nH]c3cc(NC(=O)NC(CS(C)(=O)=O)c4ccccc4)ncc23)ccn1 (centres unmarked) [Example 566]
65 | 0.251 nM | C[C@@H](NC(=O)Nc1cc2[nH]nc(-c3ccnc(F)c3)c2cn1)c1ccccc1 [Example 636]
66 | 1.56 nM | Cc1cc(-c2n[nH]c3cc(NC(=O)NCc4ccc(F)cc4F)ncc23)ccn1 [Example 513]
67 | 1.3 nM | Cc1cc(-c2n[nH]c3cc(NC(=O)NCC4CNC4)ncc23)ccn1 [Example 586]
68 | 21.6 nM | C[C@@H](NC(=O)Nc1cc2[nH]nc(C(F)F)c2cn1)c1ccc(F)cc1 [Example 669]
69 | 66.6 nM | C[C@@H](NC(=O)Nc1cc2[nH]nc(C#N)c2cn1)c1ccccc1 [Example 537, (R)-1-(3-cyano-1H-pyrazolo[4,3-c]pyridin-6-yl)-3-(1-phenylethyl)urea]
70 | 0.865 nM | Cc1cc(-c2n[nH]c3cc(NC(=O)NC4CCc5cccnc5C4)ncc23)ccn1 (centres unmarked) [Example 505]

Same assay, conditions: read-out: AERK2 IC50 (Active human ERK2 Activity Assay)

Row | IC50 | SMILES
71 | 0.2 to 1.7 nM | Cc1cc(-c2n[nH]c3cc(NC(=O)NC(C)c4cccnc4)ncc23)ccn1 (centres unmarked) [Example 49, 1-[3-(2-methylpyridin-4-yl)-1H-pyrazolo[4,3-c]pyridin-6-yl]-3-(1-pyridin-3-ylethyl)urea]

— patent publication US9023865B2, “Compounds that are ERK inhibitors” (Merck Sharp & Dohme Corp., priority 2011, dated 2015)
